Measurements from patent US6355799B1, “Substituted benzene compounds, process for their preparation, and herbicidal and defoliant compositions containing them” (ISK Americas Incorporated, priority 1997, dated 2002).

Tests used:
Type in all cases: in vivo
[1] = test system: velvetleaf (Abutilon theophrasti, ABUTH); assay: Post-emerge test, greenhouse herbicide activity screening; details: post-emerge, phytotoxicity rating 0-100 at 14 days after application
In short: (§1)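 Plants grown in 10 cm pots of sandy loam mix received acetone-dissolved compounds through a moving flat-fan nozzle. Doses ranged from 15 to 1000 g ai/ha. Pre-emerge pots were seeded one day earlier, post-emerge pots 8–21 days earlier. Fourteen days on, each pot was graded 0–100 for damage.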

[2] = test system: redroot pigweed (Amaranthus retroflexus, AMARE); assay: as above; details: post-emerge, phytotoxicity rating 0-100 at 14 days after application
In short: as §1

[3] = test system: barnyardgrass (Echinochloa crus-galli, ECHCG); assay: as above; details: post-emerge, phytotoxicity rating 0-100 at 14 days after application
In short: as §1

[4] = test system: lambsquarters (Chenopodium album, CHEAL); assay: as above; details: post-emerge, phytotoxicity rating 0-100 at 14 days after application
In short: as §1

[5] = test system: sicklepod (Cassia obtusifolia, CASOB); assay: as above; details: post-emerge, phytotoxicity rating 0-100 at 14 days after application
In short: as §1

[6] = test system: ivyleaf morningglory (Ipomoea hederacea, IPOHE); assay: as above; details: post-emerge, phytotoxicity rating 0-100 at 14 days after application
In short: as §1

[7] = test system: large crabgrass (Digitaria sanguinalis, DIGSA); assay: as above; details: post-emerge, phytotoxicity rating 0-100 at 14 days after application
In short: as §1

[8] = test system: johnsongrass (Sorghum halepense, SORHA); assay: as above; details: post-emerge, phytotoxicity rating 0-100 at 14 days after application
In short: as §1

[9] = test system: green foxtail (Setaria viridis, SETVI); assay: as above; details: post-emerge, phytotoxicity rating 0-100 at 14 days after application
In short: as §1

[10] = test system: field corn (Zea mays L., var. Dekalb 535, CORN); assay: Post-emerge test, crop safety; details: post-emerge, crop damage rating 0-100 at 14 days after application
In short: (§2)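 Rating: 0–100 visual injury, 14 DAA. Application: acetone, 187 l/ha, 15–1000 g ai/ha, flat-fan track sprayer with nozzle 40–45 cm above soil or canopy. Post-emerge runs used 0.25% v/v surfactant on 2–3 leaf plants.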

[11] = test system: upland rice (Oryza sp., var. Tebonnet, RICE); assay: Post-emerge test, crop safety; details: post-emerge, crop damage rating 0-100 at 14 days after application
In short: as §2

[12] = test system: velvetleaf (Abutilon theophrasti, ABUTH); assay: Pre-emerge test, greenhouse herbicide activity screening; details: rating scale 0-100, 14 days after application
In short: (§3)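 Compounds in acetone were track-sprayed at 15–1000 g ai/ha: pre-emergence onto soil sown the previous day, then top-watered to incorporate and later bottom-watered; post-emergence onto 2–3 leaf plants with 0.25% v/v surfactant, bottom-watered only. Ratings on a 0–100 phytotoxicity scale were taken at day 14.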

[13] = test system: barnyardgrass (Echinochloa crus-galli, ECHCG); assay: as above; details: rating scale 0-100, 14 days after application
In short: as §3

[14] = test system: lambsquarters (Chenopodium album, CHEAL); assay: as above; details: rating scale 0-100, 14 days after application
In short: as §3

[15] = test system: sicklepod (Cassia obtusifolia, CASOB); assay: as above; details: rating scale 0-100, 14 days after application
In short: as §3

[16] = test system: ivyleaf morningglory (Ipomoea hederacea, IPOHE); assay: as above; details: rating scale 0-100, 14 days after application
In short: as §3

[17] = test system: large crabgrass (Digitaria sanguinalis, DIGSA); assay: as above; details: rating scale 0-100, 14 days after application
In short: as §3

[18] = test system: johnsongrass (Sorghum halepense, SORHA); assay: as above; details: rating scale 0-100, 14 days after application
In short: as §3

[19] = test system: green foxtail (Setaria viridis, SETVI); assay: as above; details: rating scale 0-100, 14 days after application
In short: as §3

[20] = test system: field corn (Zea mays L., var. Dekalb 535, CORN); assay: Pre-emerge test, crop safety; details: rating scale 0-100, 14 days after application
In short: (§4)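 Visual ratings on a 0-100 scale (0 no damage, 100 all plants dead) were taken at 14 days after treatment. Rates of 15-1000 g ai/ha in acetone, 187 l/ha, were sprayed onto soil one day after planting (pre-emerge) or onto 2-3 leaf plants with 0.25% v/v surfactant (post-emerge).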

[21] = test system: upland rice (Oryza sp., var. Tebonnet, RICE); assay: Pre-emerge test, crop safety; details: rating scale 0-100, 14 days after application
In short: as §4

[22] = test system: redroot pigweed (Amaranthus retroflexus, AMARE); assay: Pre-emerge test, greenhouse herbicide activity screening; details: rating scale 0-100, 14 days after application
In short: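 Herbicidal damage is scored 0 (none) to 100 (complete plant death) two weeks after a simulated field spray. Rates span 15–1000 g ai/ha, delivered in acetone at 187 l/ha. For post-emergence treatments, plants have 2–3 leaves and the spray carries 0.25% v/v non-ionic surfactant.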

O=C(Nc1cc(Cl)ccc1N1C(=O)C2CCCCN2C1=O)c1ccc2ccccc2c1 (centres unmarked) [12-8]
Post-emerge Herbicidal Activity ABUTH ([1]; 63 g ai/ha): 100
Post-emerge Herbicidal Activity ABUTH ([1]; 250 g ai/ha): 100
Post-emerge Herbicidal Activity AMARE ([2]; 63 g ai/ha): 80
Post-emerge Herbicidal Activity AMARE ([2]; 250 g ai/ha): 90
Post-emerge Herbicidal Activity ECHCG ([3]; 63 g ai/ha): 10
Post-emerge Herbicidal Activity ECHCG ([3]; 250 g ai/ha): 10
Post-emerge Herbicidal Activity CHEAL ([4]; 63 g ai/ha): 95
Post-emerge Herbicidal Activity CHEAL ([4]; 250 g ai/ha): 99
Post-emerge Herbicidal Activity CASOB ([5]; 63 g ai/ha): 50
Post-emerge Herbicidal Activity CASOB ([5]; 250 g ai/ha): 70
Post-emerge Herbicidal Activity IPOHE ([6]; 63 g ai/ha): 90
Post-emerge Herbicidal Activity IPOHE ([6]; 250 g ai/ha): 80
Post-emerge Herbicidal Activity DIGSA ([7]; 63 g ai/ha): 10
Post-emerge Herbicidal Activity DIGSA ([7]; 250 g ai/ha): 0
Post-emerge Herbicidal Activity SORHA ([8]; 63 g ai/ha): 0
Post-emerge Herbicidal Activity SORHA ([8]; 250 g ai/ha): 10
Post-emerge Herbicidal Activity SETVI ([9]; 63 g ai/ha): 20
Post-emerge Herbicidal Activity SETVI ([9]; 250 g ai/ha): 25
Post-emerge Herbicidal Activity CORN ([10]; 63 g ai/ha): 5
Post-emerge Herbicidal Activity CORN ([10]; 250 g ai/ha): 10
Post-emerge Herbicidal Activity RICE ([11]; 63 g ai/ha): 20
Post-emerge Herbicidal Activity RICE ([11]; 250 g ai/ha): 15
Pre-emerge herbicidal activity, phytotoxicity rating ABUTH ([12]; 63 g ai/ha): 0
Pre-emerge herbicidal activity, phytotoxicity rating ABUTH ([12]; 250 g ai/ha): 100
Pre-emerge herbicidal activity, phytotoxicity rating ECHCG ([13]; 63 g ai/ha): 0
Pre-emerge herbicidal activity, phytotoxicity rating ECHCG ([13]; 250 g ai/ha): 40
Pre-emerge herbicidal activity, phytotoxicity rating CHEAL ([14]; 63 g ai/ha): 100
Pre-emerge herbicidal activity, phytotoxicity rating CHEAL ([14]; 250 g ai/ha): 100
Pre-emerge herbicidal activity, phytotoxicity rating CASOB ([15]; 63 g ai/ha): 0
Pre-emerge herbicidal activity, phytotoxicity rating CASOB ([15]; 250 g ai/ha): 20
Pre-emerge herbicidal activity, phytotoxicity rating IPOHE ([16]; 63 g ai/ha): 0
Pre-emerge herbicidal activity, phytotoxicity rating IPOHE ([16]; 250 g ai/ha): 40
Pre-emerge herbicidal activity, phytotoxicity rating DIGSA ([17]; 63 g ai/ha): 50
Pre-emerge herbicidal activity, phytotoxicity rating DIGSA ([17]; 250 g ai/ha): 100
Pre-emerge herbicidal activity, phytotoxicity rating SORHA ([18]; 63 g ai/ha): 10
Pre-emerge herbicidal activity, phytotoxicity rating SORHA ([18]; 250 g ai/ha): 40
Pre-emerge herbicidal activity, phytotoxicity rating SETVI ([19]; 63 g ai/ha): 60
Pre-emerge herbicidal activity, phytotoxicity rating SETVI ([19]; 250 g ai/ha): 100
Pre-emerge phytotoxicity rating, crop damage CORN ([20]; 63 g ai/ha): 0
Pre-emerge phytotoxicity rating, crop damage CORN ([20]; 250 g ai/ha): 0
Pre-emerge phytotoxicity rating, crop damage RICE ([21]; 63 g ai/ha): 30
Pre-emerge phytotoxicity rating, crop damage RICE ([21]; 250 g ai/ha): 40
Pre-emerge herbicidal activity, phytotoxicity rating AMARE ([22]; 63 g ai/ha): 100
Pre-emerge herbicidal activity, phytotoxicity rating AMARE ([22]; 250 g ai/ha): 100
